Reference: patent publication US20240292836A1, “AGENTS FOR REPELLING, KNOCKING DOWN, AND/OR KILLING BLOOD-SUCKING ARTHROPODS AND USES THEREOF” (The United States of America, as represented by the …, priority 2023, published 2024)
Values joined by “and” are separate entries in the source; they are usually repeats but may differ in a detail not shown here. Equal values may be shown once.

Legend:
[1] = tested on: female Aedes aegypti adults; assay: Arm-in-cage cloth-patch in vivo assay (topical repellency); conditions: for Minimum Effective Dose (MED): Mean ± SEM, lowest dosage with five or fewer bites through repellent-treated cloth in 1-minute exposure, at least three volunteers; for MED, times lower than the initial screening dose: relative to initial screening dose of 0.187 mg/cm^2; for topical repellency (in words): initial screening dose of 0.187 mg/cm^2
Source text: Arm-in-Cage Test Cloth-Patch in vivo Assay Pyrethroid-susceptible yellow fever mosquitoes Ae. aegypti (Orlando strain) were reared in the United States Department of Agriculture Mosquito and Fly Research Unit in Gainesville, FL under standard protocols. Three to seven-day-old, starved female mosquitoes were collected using a “draw box” (Posey, K. and Schreck, C. E, 1981, “An airflow apparatus for selecting female mosquitoes for use in repellent and attraction studies” Mosquito News 41: 566-568; US. Department of Agriculture, 1977, Repellent activity of compounds submitted by Walter Reed Army Institute of Research. Part 1. Protection time and minimum effective dosage against Aedes aegypti mosquitoes. Tech. Bull. No. 1549) and were placed in cages at an approximate density 200 mosquitoes/cage. Repellency was determined according to a standard protocol (Bernier, U. R., et al, 2022. “Evaluation and application of repellent-treated uniform/clothing and textiles against vector mosquitoes,” In Advances in Arthropod Repellents (pp. 69-94). Academic Press) and reported as the minimum effective dosage (MED). […] A nylon leg stocking was placed over the arm to prevent direct contact of the repellent-treated cloth patch with the skin. […]. Cloth was treated by placing a rolled bandage (50 cm^2) into each vial containing 1 mL of solution and allowing the patch to absorb the solution completely. The cloth was taped over a 4 by 9-cm opening cut into a vinyl plastic sheet that was draped around the volunteers' arms and taped in place. The cloth was air-dried approximately 15 min before conducting each test. The work reported here is an average of the MED for at least three volunteers. Each volunteer covered his or her arm with a nylon stocking to avoid contact between the skin and the treated cloth and wore a rubber glove to prevent mosquito bites on the hand.
. The minimum effective dose (MED) was determined for each repellent and subject, defined as the lowest concentration that prevents biting). MEDs from each subject were pooled and reported as the average among all replicates/subjects with SEM. A minimum of 3 replicates were performed on at least three human subjects. Written informed consent was obtained for all human subjects used in this study in accordance with IRB protocol #20193320, as approved by the WCG™ IRB.
Statistical Analyses: Student's T-test was used to compare the means between tested compound and DEET and Icaridin in the arm-in-cage in vivo assay and neurophysiological study.

[2] = tested on: female Aedes aegypti adults; assay: High-throughput in vitro screening assay, spatial repellency; type: in vivo; conditions: for RD50 (30 min), half-repellent dose / RD50 (60 min), half-repellent dose: dose per filter paper surface area, 95% CI; for spatial repellency (in words): highest-tested dose of 100 μg/cm^2; for 30-minute RD50 compared with that of DEET: 30 minutes, α = 0.05
Source text: A high-throughput screening method for evaluating spatial repellency and vapor toxicity, described by Jiang S., et al. (2019, “High-Throughput Screening Method for Evaluating Spatial Repellency and Vapour Toxicity to Mosquitoes,” Med. Vet. Entomol. 33: 388-396), was used for this study. As shown in FIG. 2 of Jiang S., et al., assay tubes were constructed by covering 12.5 cm glass tubes on one side with netting secured by a rubber band. The tubes were used in horizontal orientation. Adult mosquitos 2-7 days old were anesthetized on ice for approximately 5 minutes and 16 females were transferred to each tube. The other end of the tube was then closed with netting and a rubber band.
The conical ends of 50 mL centrifuge tubes (Eppendorf, Enfield, Connecticut, USA) were cut at approximately the 10 mL mark to create the end caps for the assay tubes. […] For repellency tests, filter papers for the “untreated” side of the assay tube received pure acetone, whereas filter papers for the “treated” side received acetone solution containing a dissolved compound of interest. For knockdown tests, both filter papers were treated with acetone solution containing one or more compounds of interest. Acetone on both filter papers served as negative controls.
For repellency assays, filter papers were given 10 minutes of evaporation time before being placed into the end caps with forceps (Jiang S., et al. 2019, Supra). For knockdown assays, filter papers were given 5 minutes of evaporation time before being placed into the end caps. […] Assay tubes were capped such that the cap securely overlapped the glass but approximately 5 mm of space was left between the netting and the filter paper so that the mosquitos could not contact the filter paper.
Assay tubes were placed on a white polystyrene platform with wooden sticks glued flatly across it to prevent the tubes from rolling. A straight black line was drawn down the center of the platform and assay tubes were centered on the line at the beginning of the tests. In repellency assays, data were collected at 15, 30, and 60 minutes after the end caps were placed on the assay tubes. Assay tubes were not disturbed for the entire 60 minutes. At each time point, the number of mosquitos that remained on the treated side was visually assessed and recorded. The treated side was alternated with each set of tests. For repellency tests, DEET at a dose of 100 μg/cm^2 served as the positive control.
For the high-throughput in vitro screening assays, analyses were conducted with R version 4.2.2 statistical software (R Core Team, 2022, “R: a language and environment for statistical computing. R foundation for statistical computing,” Vienna, Austria). Concentrations were calculated in terms of filter paper surface area (μg/cm^2) for repellency assays and in terms of assay tube volume (μg/cm^3) for knockdown assays.
Half-repellent (RD50), half-knockdown (KD50), and half-lethal (LD50) doses were calculated from dose-response curves (DRCs) obtained by four-parameter log-logistic equation models generated using the drc package (Dose Response Curve Analyses Software; Ritz C. et al., 2015, “Dose-response analysis using R,” PLOS ONE 10: e0146021). For repellency test analysis, the upper and lower asymptotes for the proportion of mosquitos remaining on the treated side were fixed at 0.5 and 0, respectively. For KD and mortality test analysis, the upper and lower asymptotes for the proportion of mosquitos knocked down or killed were fixed at 1.0 and 0, respectively. To determine whether RD50, KD50, or LD50 values differed across compounds at each timepoint, a joint model assuming different values for each compound and a null model that assumed a single value for all compounds were compared with a likelihood ratio test.

CCCOC(=O)c1ccccc1NC=O [nPrFA, n-Propyl N-formylanthranilate]
Minimum Effective Dose (MED) [1]: 0.0028 mg/cm^2 | MED, times lower than the initial screening dose [1]: 64 times | RD50 (30 min), half-repellent dose [2]: >100 μg/cm^2 | RD50 (60 min), half-repellent dose [2]: >100 μg/cm^2 | spatial repellency (in words) [2]: did not show any spatial repellencies

O=C(OCCc1ccccc1)c1ccccc1 [PhEB, phenethyl benzoate]
Minimum Effective Dose (MED) [1]: >0.187 mg/cm^2 | topical repellency (in words) [1]: did not show any topical repellencies | RD50 (30 min), half-repellent dose [2]: >100 μg/cm^2 | RD50 (60 min), half-repellent dose [2]: >100 μg/cm^2 | spatial repellency (in words) [2]: did not show spatial repellencies

C=CCOC(=O)c1ccccc1N [AA, allyl anthranilate]
Minimum Effective Dose (MED) [1]: 0.039 mg/cm^2 | 30-minute RD50 compared with that of DEET [2]: significantly lower than that of DEET

COC(=O)c1ccccc1 [MB, Methyl benzoate]
Minimum Effective Dose (MED) [1]: >0.187 mg/cm^2 | topical repellency (in words) [1]: did not show any topical repellencies | RD50 (30 min), half-repellent dose [2]: >100 μg/cm^2 | RD50 (60 min), half-repellent dose [2]: >100 μg/cm^2 | spatial repellency (in words) [2]: did not show spatial repellencies

COC(=O)c1ccccc1N [MA, methyl anthranilate]
Minimum Effective Dose (MED) [1]: 0.027 mg/cm^2 | RD50 (30 min), half-repellent dose [2]: 11.84 μg/cm^2 | 30-minute RD50 compared with that of DEET [2]: significantly lower than that of DEET

COC(=O)c1ccc(O)cc1 [M4HB, methyl 4-hyhroxylbenzoate]
Minimum Effective Dose (MED) [1]: >0.187 mg/cm^2 | topical repellency (in words) [1]: did not show any topical repellencies | RD50 (30 min), half-repellent dose [2]: >100 μg/cm^2 | RD50 (60 min), half-repellent dose [2]: >100 μg/cm^2 | spatial repellency (in words) [2]: did not show spatial repellencies

CCCCOC(=O)c1ccccc1NC=O [nBFA, n-Butyl N-formylanthranilate]
Minimum Effective Dose (MED) [1]: 0.0075 mg/cm^2 | MED, times lower than the initial screening dose [1]: 25 times | RD50 (30 min), half-repellent dose [2]: >100 μg/cm^2 | RD50 (60 min), half-repellent dose [2]: >100 μg/cm^2 | spatial repellency (in words) [2]: did not show any spatial repellencies

CC(C)OC(=O)c1ccccc1 [iPrB, iso-propyl benzoate]
Minimum Effective Dose (MED) [1]: >0.187 mg/cm^2 | topical repellency (in words) [1]: did not show any topical repellencies | RD50 (30 min), half-repellent dose [2]: >100 μg/cm^2 | RD50 (60 min), half-repellent dose [2]: >100 μg/cm^2 | spatial repellency (in words) [2]: did not show spatial repellencies

COC(=O)c1ccccc1C [M2MB, methyl 2-methylbenzoate]
Minimum Effective Dose (MED) [1]: 0.250 mg/cm^2 | topical repellency (in words) [1]: demonstrated repellency at doses lower than 0.187 mg/cm^2 on at least one test subject | RD50 (30 min), half-repellent dose [2]: >100 μg/cm^2 | RD50 (60 min), half-repellent dose [2]: >100 μg/cm^2 | spatial repellency (in words) [2]: did not show spatial repellencies

COC(=O)c1ccc(C(F)(F)F)cc1 [M4tFMB, methyl 4-(trifluoromethyl)benzoate]
Minimum Effective Dose (MED) [1]: >0.187 mg/cm^2 | topical repellency (in words) [1]: did not show any topical repellencies | RD50 (30 min), half-repellent dose [2]: >100 μg/cm^2 | RD50 (60 min), half-repellent dose [2]: >100 μg/cm^2 | spatial repellency (in words) [2]: did not show spatial repellencies

COC(=O)c1ccc(Cl)cc1 [M4CB, methyl 4-chlorobenzoate]
Minimum Effective Dose (MED) [1]: >0.187 mg/cm^2 | topical repellency (in words) [1]: did not show any topical repellencies | RD50 (30 min), half-repellent dose [2]: >100 μg/cm^2 | RD50 (60 min), half-repellent dose [2]: >100 μg/cm^2 | spatial repellency (in words) [2]: did not show spatial repellencies

CCOC(=O)c1ccccc1N [EA, ethyl anthranilate]
Minimum Effective Dose (MED) [1]: 0.037 mg/cm^2 | 30-minute RD50 compared with that of DEET [2]: significantly lower than that of DEET

CCOC(=O)c1cccc(N)c1 [E3AB, ethyl 3-aminobenzoate]
Minimum Effective Dose (MED) [1]: 0.039 mg/cm^2 | RD50 (30 min), half-repellent dose [2]: >100 μg/cm^2 | RD50 (60 min), half-repellent dose [2]: >100 μg/cm^2 | spatial repellency (in words) [2]: did not show any spatial repellencies

O=C(Oc1ccccc1)c1ccccc1 [PhB, phenyl benzoate]
Minimum Effective Dose (MED) [1]: >0.187 mg/cm^2 | topical repellency (in words) [1]: did not show any topical repellencies | RD50 (30 min), half-repellent dose [2]: >100 μg/cm^2 | RD50 (60 min), half-repellent dose [2]: >100 μg/cm^2 | spatial repellency (in words) [2]: did not show spatial repellencies

COC(=O)c1ccccc1NC(C)=O [MAcA, methyl N-acetylanthranilate]
Minimum Effective Dose (MED) [1]: 0.101 mg/cm^2 | topical repellency (in words) [1]: demonstrated repellency at doses lower than 0.187 mg/cm^2 on at least one test subject | RD50 (30 min), half-repellent dose [2]: >100 μg/cm^2 | RD50 (60 min), half-repellent dose [2]: >100 μg/cm^2 | spatial repellency (in words) [2]: did not show spatial repellencies

CCOC(=O)c1ccccc1 [EB, ethyl benzoate]
Minimum Effective Dose (MED) [1]: >0.187 mg/cm^2 | topical repellency (in words) [1]: did not show any topical repellencies | RD50 (30 min), half-repellent dose [2]: >100 μg/cm^2 | RD50 (60 min), half-repellent dose [2]: >100 μg/cm^2 | spatial repellency (in words) [2]: did not show spatial repellencies

COC(=O)c1cccc(OC)c1 [M3MOB, methyl 3-methoxybenzoate]
Minimum Effective Dose (MED) [1]: 0.266 mg/cm^2 | topical repellency (in words) [1]: demonstrated repellency at doses lower than 0.187 mg/cm^2 on at least one test subject | 30-minute RD50 compared with that of DEET [2]: not significantly different from that of DEET

CCC(C)OC(=O)N1CCCCC1CCO (stereo not shown) [Icaridin, 1-(1-Methylpropoxycarbonyl)-2-(2-hydroxyethyl)piperidine, reference compound]
Minimum Effective Dose (MED) [1]: 0.0150±0.004 mg/cm^2 and 0.0150 mg/cm^2

CC(C)COC(=O)c1ccccc1N [iBA, iso-butyl anthranilate]
30-minute RD50 compared with that of DEET [2]: not significantly different from that of DEET

CNc1ccccc1C(=O)OC [MMA, methyl N-methylanthranilate]
30-minute RD50 compared with that of DEET [2]: significantly lower than that of DEET

CCCCOC(=O)c1ccccc1N [nBA, n-butyl anthranilate]
RD50 (30 min), half-repellent dose [2]: >100 μg/cm^2 | spatial repellency (in words) [2]: did not show any spatial repellencies
